Assay results: patent US20150173370A1, “S[…] CONTROL FROM COMBINATIONS OF 2,4-D-CHOLINE, GLYPHOSATE, AND GLUFOSINATE” (Dow AgroSciences LLC, priority 2013, published 2015)
“And” between values parts separate entries of the source, which are not always exact repeats. Equal values may be shown once.

How the values were obtained:
[1] = tested on: AAD12 Soybean (GLXMA); experiment: Field trials, crop tolerance (% visual chlorosis); assay type: in vivo, Glycine max L. (soybean)
Protocol: Field trials were conducted under agricultural field conditions in multiple states in the United States, including but not limited to Arkansas, Iowa, Illinois, Indiana, Kansas, Minnesota, Mississippi, Missouri, New York, Tennessee and Wisconsin. Trials were established as RCB (randomized complete block) design, with 3-4 replicates per treatment, and plot sizes varying from 5-10 feet (ft) wide by 12-30 ft long. Treatments were applied with small plot backpack sprayers, using pressurized carbon dioxide (CO2) as propellant. Pressure varied from 17-52 pounds per square inch (psi), with spray tips typically of a Flat Fan type applying water diluent at 15 gallons per acre (GPA). Boom sizes varied from 5-11 ft in width. Treatments were applied to soybean, cotton, corn or fallow crop land. Weed sizes varied, but all treatments were applied as post-emergence treatments to weeds from 2 leaf to 2 tiller growth stages varying from 3 to 17 inches in height. The weed spectrum included, but was not limited to, Amaranthus palmeri S. Wats. (Palmer amaranth, AMAPA), Ambrosia trifida L. (giant ragweed, AMBTR), Conyza canadensis (L.) Cronq. (horseweed, ERICA) and Salsola tragus L. (Russian thistle, SASKR). […]
However, the experiments described herein were performed such that active ingredients A and B were combined and only the efficacy of the combination was determined. […]

[2] = tested on: AAD12 Soybean (GLXMA); experiment: Field trials, crop tolerance (% visual necrosis); assay type: in vivo, Glycine max L. (soybean)
Protocol: Field trials were conducted under agricultural field conditions in multiple states in the United States, including but not limited to Arkansas, Iowa, Illinois, Indiana, Kansas, Minnesota, Mississippi, Missouri, New York, Tennessee and Wisconsin. Trials were established as RCB (randomized complete block) design, with 3-4 replicates per treatment, and plot sizes varying from 5-10 feet (ft) wide by 12-30 ft long. Treatments were applied with small plot backpack sprayers, using pressurized carbon dioxide (CO2) as propellant. Pressure varied from 17-52 pounds per square inch (psi), with spray tips typically of a Flat Fan type applying water diluent at 15 gallons per acre (GPA). Boom sizes varied from 5-11 ft in width. Treatments were applied to soybean, cotton, corn or fallow crop land. Weed sizes varied, but all treatments were applied as post-emergence treatments to weeds from 2 leaf to 2 tiller growth stages varying from 3 to 17 inches in height. The weed spectrum included, but was not limited to, Amaranthus palmeri S. Wats. (Palmer amaranth, AMAPA), Ambrosia trifida L. (giant ragweed, AMBTR), Conyza canadensis (L.) Cronq. (horseweed, ERICA) and Salsola tragus L. (Russian thistle, SASKR).
Glyphosate-, 2,4-D- and glufosinate-tolerant soybeans, corn or cotton comprising genes for tolerance for each herbicide as described above were used in all trials either as a breeding stack of one to three herbicide-tolerant events or as a molecular stack where all three herbicide tolerance traits were transformed into a single event.
The 2,4-D-choline salt plus glyphosate premix formulation was a 400 g ae/L SL containing 195 g ae/L 2,4-D-choline salt and 205 g ae/L glyphosate-dimethylammonium (DMA) salt. […] All treatments were mixed in water at appropriate formulated product rates to achieve the desired rates as shown based on a unit area of application (hectare). Treatments were rated at 1 to 28 days after application (DAA) as compared to the untreated control plants. The trial sites had naturally occurring populations of weeds. The treated plots and control plots were rated blind at various intervals after application.
Colby's equation was used to determine the herbicidal effects expected from the mixtures (Colby, S. R. Calculation of the synergistic and antagonistic response of herbicide combinations. Weeds 1967, 15, 20-22). A t-test (alpha=0.05) between Colby predictions and observed combinations was used to test for significant differences indicating synergy or antagonism using replicate data.
However, the experiments described herein were performed such that active ingredients A and B were combined and only the efficacy of the combination was determined. As such, Colby's equation simplifies to
Z=observed efficacy of a combination of active ingredient A (2,4-D-choline) and active ingredient B (glyphosate-DMA) at the same concentration as used in the mixture;

CP(=O)(O)CCC(N)C(=O)O (stereo not shown) [Glufosinate-Ammonium, ammonium (3-amino-3-carboxypropyl)(methyl)phosphinate]
Mean % Visual Chlorosis ([1]; 10 DAA, 1084 g ae/ha alone): 8.5% and 10.0%
Mean % Visual Chlorosis ([1]; 14 DAA, 542 g ae/ha alone): 5.8%
Mean % Visual Necrosis ([2]; 2 DAA, 1084 g ae/ha alone): 25.0%
Mean % Visual Necrosis ([2]; 3 DAA, 542 g ae/ha alone): 0.0%
Mean % Visual Necrosis ([2]; 3 DAA, 822 g ae/ha alone): 0.8%
Mean % Visual Necrosis ([2]; 3 DAA, 1084 g ae/ha alone): 3.0% and 8.5% and 1.5% and 1.3%
Mean % Visual Necrosis ([2]; 5 DAA, 542 g ae/ha alone): 2.8%
Mean % Visual Necrosis ([2]; 7 DAA, 542 g ae/ha alone): 0.5% and 0.3%
Mean % Visual Necrosis ([2]; 7 DAA, 822 g ae/ha alone): 0.8% and 0.0% and 10.0% and 1.0% and 1.3%
Mean % Visual Necrosis ([2]; 7 DAA, 1084 g ae/ha alone): 3.3% and 1.3% and 10.0% and 2.0% and 2.3%
Mean % Visual Necrosis ([2]; 8 DAA, 822 g ae/ha alone): 7.5%
Mean % Visual Necrosis ([2]; 8 DAA, 1084 g ae/ha alone): 10.0% and 12.5% and 6.5%
Mean % Visual Necrosis ([2]; 9 DAA, 822 g ae/ha alone): 6.0%
Mean % Visual Necrosis ([2]; 10 DAA, 1084 g ae/ha alone): 2.3%
Mean % Visual Necrosis ([2]; 14 DAA, 822 g ae/ha alone): 0.0% and 1.0%
Mean % Visual Necrosis ([2]; 14 DAA, 1084 g ae/ha alone): 5.0% and 2.0%
Mean % Visual Necrosis ([2]; 16 DAA, 542 g ae/ha alone): 3.0%
Mean % Visual Necrosis ([2]; 16 DAA, 822 g ae/ha alone): 5.0%
Mean % Visual Necrosis ([2]; 16 DAA, 1084 g ae/ha alone): 1.8%
